Experimental data taken from the NIST ThermoML archive (doi:10.1016/j.jct.2015.05.006).

Tests used:
[1] = 101.33 kPa, Liquid, Vibrating tube method
[2] = relative permittivity at various frequencies (dimensionless); settings: Liquid, Frequency=1 MHz, Parallel plate capacitor
[3] = xn = mol fraction of the nth substance listed; settings: Liquid, Vibrating tube method, x1 = 1
[4] = relative permittivity at various frequencies (dimensionless); xn = mol fraction of the nth substance listed; settings: Liquid, Frequency=1 MHz, Parallel plate capacitor, x1 = 1

COCCOC [1,2-dimethoxyethane]
[1]
Settings | mass density [kg/m3]
288.15 K | 872.06
298.15 K | 861.17
308.15 K | 850.13

[2], 96.5 kPa
Settings | relative permittivity
288.15 K | 7.41
298.15 K | 7.07
308.15 K | 6.75

C1CCCCC1 [cyclohexane]
[1]
Settings | mass density [kg/m3]
288.15 K | 783.29
298.15 K | 773.86
308.15 K | 764.38

[2], 96.6 kPa
Settings | relative permittivity
288.15 K | 2.04
298.15 K | 2.03
308.15 K | 2.02

C1CCCCC1 [cyclohexane] + COCCOC
96.6 kPa
Settings | mass density, 288.15 K [kg/m3] | mass density, 298.15 K [kg/m3] | mass density, 308.15 K [kg/m3] | relative permittivity, 288.15 K | relative permittivity, 298.15 K | relative permittivity, 308.15 K
[3] | 783.29 | 773.86 | 764.38 | – | – | –
[4] | – | – | – | 2.04 | 2.03 | 2.02

CCCCCCCCCCCC [dodecane]
[1]
Settings | mass density [kg/m3]
288.15 K | 752.44
298.15 K | 745.29
308.15 K | 737.93

[2], 97 kPa
Settings | relative permittivity
288.15 K | 2.04
298.15 K | 2.02
308.15 K | 2.01

CCCCCCCCCCCC [dodecane] + COCCOC
97 kPa
Settings | mass density, 288.15 K [kg/m3] | mass density, 298.15 K [kg/m3] | mass density, 308.15 K [kg/m3] | relative permittivity, 288.15 K | relative permittivity, 298.15 K | relative permittivity, 308.15 K
[3] | 752.44 | 745.29 | 737.93 | – | – | –
[4] | – | – | – | 2.04 | 2.02 | 2.01

CCCCCC [hexane]
[1]
Settings | mass density [kg/m3]
288.15 K | 664.13
298.15 K | 655.14
308.15 K | 646.1

[2], 95.2 kPa
Settings | relative permittivity
288.15 K | 1.91
298.15 K | 1.89
308.15 K | 1.88

CCCCCC [hexane] + COCCOC
95.2 kPa
Settings | mass density, 288.15 K [kg/m3] | mass density, 298.15 K [kg/m3] | mass density, 308.15 K [kg/m3] | relative permittivity, 288.15 K | relative permittivity, 298.15 K | relative permittivity, 308.15 K
[3] | 664.13 | 655.14 | 646.1 | – | – | –
[4] | – | – | – | 1.91 | 1.89 | 1.88

CCCCCCCC [octane]
[1]
Settings | mass density [kg/m3]
288.15 K | 706.6
298.15 K | 698.58
308.15 K | 690.48

[2], 97.1 kPa
Settings | relative permittivity
288.15 K | 1.97
298.15 K | 1.96
308.15 K | 1.94

CCCCCCCC [octane] + COCCOC
97.1 kPa
Settings | mass density, 288.15 K [kg/m3] | mass density, 298.15 K [kg/m3] | mass density, 308.15 K [kg/m3] | relative permittivity, 288.15 K | relative permittivity, 298.15 K | relative permittivity, 308.15 K
[3] | 706.6 | 698.58 | 690.48 | – | – | –
[4] | – | – | – | 1.97 | 1.96 | 1.94
